Data on seven compounds can be found in PubChem BioAssay (NCI).

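Compound exposure: 48 hours, 5 concentrations, 96-well plates. Here, GI50 denotes the concentration required for 50% inhibition of growth. TGI denotes the concentration required for complete inhibition of growth.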

Some test systems named below: SF-539 CNS; RXF 393 renal; SK-OV-3 ovarian; MOLT-4 leukemia; SF-268 CNS; OVCAR-5 ovarian; NCI-H226 lung; A498 renal; HOP-62 NSCLC; SF-295 CNS.
Holding throughout (assay): NCI tumour cell line growth inhibition, 48 h

Regarding `CC(C)c1cc(-c2n[nH]c(=O)n2-c2ccc3c(ccn3C)c2)c(O)cc1O`, the GI50 in the experiment on SF-539 CNS is under 0.0279 µM; in the experiment with RXF 393 renal it was under 0.0304 µM; in the experiment with SK-OV-3 ovarian it was under 0.0132 µM; in the experiment on MOLT-4 leukemia, under 0.0177 µM; with SF-268 CNS it was 9.69 µM; in the experiment with OVCAR-5 ovarian, 0.147 µM. For the same compound, the GI50 with NCI-H226 lung is 0.286 µM; in the experiment on A498 renal, 0.0534 µM; in the experiment on HOP-62 NSCLC it was 0.0794 µM; with SF-295 CNS, under 0.0215 µM. Also, the TGI in the experiment with SF-539 CNS is 21.8 µM; with RXF 393 renal, 21.5 µM; with SK-OV-3 ovarian it was over 43.5 µM; in the experiment with SF-268 CNS it was 38.9 µM; with OVCAR-5 ovarian, over 48.4 µM; in the experiment on NCI-H226 lung it was 60.1 µM. Also, the TGI with A498 renal amounted to 14 µM; with HOP-62 NSCLC it was 31.8 µM; in the experiment with SF-295 CNS it was 0.796 µM.

In the case of `N#C/C(=C\c1ccc(O)c(O)c1)C(N)=S`, the TGI with SF-539 CNS was over 100 µM; with RXF 393 renal, over 89.7 µM; with SK-OV-3 ovarian it was over 100 µM; with MOLT-4 leukemia it was over 100 µM; in the experiment with SF-268 CNS, over 100 µM; in the experiment with OVCAR-5 ovarian it was over 100 µM. For the same compound, the TGI in the experiment with NCI-H226 lung, with A498 renal, in the experiment with HOP-62 NSCLC and in the experiment with SF-295 CNS was over 100 µM each time.

For the compound `CC[C@@H](C(=O)O)C1CC[C@H](C)C([C@@H](C)[C@H](O)[C@H](C)C(=O)[C@H](CC)C2O[C@]3(C=C[C@@H](O)[C@]4(CC[C@@](C)(C5CC[C@](O)(CC)[C@H](C)O5)O4)O3)[C@H](C)C[C@@H]2C)O1` (some centres undefined), the GI50 is 0.309 µM with SF-539 CNS; 0.289 µM with RXF 393 renal; 3.44 µM with SK-OV-3 ovarian; 1.47 µM in the experiment with MOLT-4 leukemia; 1.31 µM in the experiment on SF-268 CNS; 2.48 µM in the experiment on OVCAR-5 ovarian. The GI50 is 1.19 µM in the experiment with NCI-H226 lung, 0.0458 µM with A498 renal, 1.11 µM with HOP-62 NSCLC and 0.261 µM with SF-295 CNS. The TGI in the experiment on SF-539 CNS is 3.9 µM; in the experiment with RXF 393 renal, 3.76 µM; in the experiment on SK-OV-3 ovarian, 31.8 µM; in the experiment on MOLT-4 leukemia, 5.92 µM; with SF-268 CNS, 16 µM; with OVCAR-5 ovarian it was 50.8 µM. The TGI is 10.8 µM with NCI-H226 lung, 0.799 µM in the experiment with A498 renal, 21.7 µM in the experiment with HOP-62 NSCLC and 11.1 µM in the experiment on SF-295 CNS.

Take `NCCn1c(=O)[nH]c(=O)[nH]c1=S`: the GI50 in the experiment on SF-539 CNS, in the experiment on RXF 393 renal, with SK-OV-3 ovarian, with MOLT-4 leukemia, with SF-268 CNS and with OVCAR-5 ovarian was over 100 µM throughout. For the same compound, the GI50 in the experiment with NCI-H226 lung, in the experiment with A498 renal, with HOP-62 NSCLC and with SF-295 CNS was over 100 µM each time. For the same compound, the TGI with SF-539 CNS, in the experiment with RXF 393 renal, with SK-OV-3 ovarian, with MOLT-4 leukemia, with SF-268 CNS and in the experiment with OVCAR-5 ovarian was over 100 µM in each case. Further, the TGI in the experiment with NCI-H226 lung, in the experiment on A498 renal, in the experiment on HOP-62 NSCLC and in the experiment on SF-295 CNS was over 100 µM throughout.

For the compound `Cc1cc(N(CCCl)CCCl)ccc1C=Nc1ccc(-c2csc(Cc3ccccc3)n2)cc1`, the GI50 with SF-539 CNS is 5.41 µM; in the experiment with RXF 393 renal it was 14.6 µM; in the experiment on SK-OV-3 ovarian, 11.8 µM; in the experiment on MOLT-4 leukemia, 2.22 µM; in the experiment on SF-268 CNS, 7.03 µM; in the experiment with OVCAR-5 ovarian it was 8.91 µM. Further, the GI50 in the experiment with NCI-H226 lung is 0.596 µM; in the experiment with A498 renal, 0.144 µM; in the experiment with HOP-62 NSCLC, 5.72 µM; in the experiment with SF-295 CNS, 1.65 µM. Besides, the TGI in the experiment on SF-539 CNS was 29.4 µM; with RXF 393 renal it was 71.3 µM; with SK-OV-3 ovarian, 50.1 µM; in the experiment with MOLT-4 leukemia, 62 µM; in the experiment on SF-268 CNS it was over 85.4 µM; with OVCAR-5 ovarian, over 67.1 µM. Further, the TGI is 21.3 µM with NCI-H226 lung, 1.13 µM in the experiment on A498 renal, over 83 µM in the experiment with HOP-62 NSCLC and 50.6 µM in the experiment with SF-295 CNS.

In the case of `COc1cc(C(=O)C/C(CCCC(=O)Nc2ccccc2[N+](=O)[O-])=N/NC(=O)c2cc3ccccc3cc2O)ccc1O`, the TGI in the experiment on SF-539 CNS was over 100 µM; in the experiment on RXF 393 renal it was over 100 µM; in the experiment with SK-OV-3 ovarian, 95.7 µM; with MOLT-4 leukemia, 77 µM; in the experiment on SF-268 CNS, over 100 µM; in the experiment with OVCAR-5 ovarian, over 100 µM. Moreover, the TGI in the experiment with NCI-H226 lung, in the experiment on A498 renal, with HOP-62 NSCLC and in the experiment with SF-295 CNS was over 100 µM each time.

Consider `CN(C)CCCNC(CC#N)CCC#N` (centres undefined), for which the TGI with SF-539 CNS, with RXF 393 renal, with SK-OV-3 ovarian, in the experiment with MOLT-4 leukemia, in the experiment with SF-268 CNS and with OVCAR-5 ovarian was over 10 µM throughout. For the same compound, the TGI in the experiment on NCI-H226 lung, in the experiment on A498 renal, in the experiment with HOP-62 NSCLC and in the experiment on SF-295 CNS was over 10 µM throughout.
